# Experimental data reported in patent publication US20220308062A1, “METHODS FOR PREDICTING DRUG RESPONSIVENESS IN SAMPLES FROM CANCER SUBJECTS” (Board of Regents, The University of Texas System, priority 2019, published 2022).
# Entries after “also recorded” stand apart in the source; their conditions may differ.
# How the values were obtained:
# A549 mouse xenograft = test: Xenograft study of TP-0903 treatment; assay type: in vivo; conditions: oral 120 mg/kg twice weekly or 80 mg/kg daily
# Protocol: (§1) Xenograft study of TP-0903 treatment. Mouse xenografts were implanted subcutaneously in the hind flank of the athymic nude mice. Tumor volumes were allowed to grow to a medium size (approximately 100 mm^3) before stratification and initiation of dosing. General health, tumor volumes, and bodyweights were followed over the course of the study.
# as §1, with “grown” for “allowed to grow”, “(˜100” for “(approximately 100”, “dose initiation.” for “initiation of dosing.”
# A549 and H2009 cells [1] = test: Capillary Western immunoassay (WES); assay type: cell-based, human
# Protocol: Capillary Western immunoassay. Protein lysates of A549 lung cancer cells were prepared in radioimmunoprecipitation assay buffer (Thermo Fisher Scientific). Proteins with 12-230 kDa were analyzed in the Western immunoassay (WES) Separation Module of the quantitative capillary Western immunoassay system (ProteinSimple, San Jose, Calif.). The following antibodies were used: (i) β-catenin, AXL, AKT, C-RAF, p38 MAPK, MEK1/2, P42/44 MAPK, SMAD2/3, SMAD4, and GAPDH from Cell Signaling Technology (Danvers, Mass.); (ii) p-AXL from R&D Systems (Minneapolis, Minn.); (iii) vimentin, YAP1, TAZ, CK8/18 and CK19 from Novus Biologicals (Centennial, Colo.); (iv) N-cadherin from Abcam (Cambridge); (v) E-cadherin from BD Biosciences (San Jose, Calif.). Protein expression levels were normalized with that of GAPDH.
# Capillary Western immunoassay (WES). Protein lysates of A549 and H2009 cells were prepared in radio-immunoprecipitation assay buffer (Thermo Fisher Scientific). Proteins were then analyzed in 12-230 and 66-440 kDa WES separation module of quantitative capillary Western immunoassay system (Protein Simple). The following antibodies were used: 1) AXL, AKT, JNK, p38 MAPK, MEK1/2, P42/44 MAPK, and GAPDH (Cell Signaling Technology); and 2) p-AXL and YAP1 (R&D Systems). Protein expression levels were normalized with GAPDH as loading controls.
# Materials and methods. Capillary Western immunoassay (WES). Protein lysates of A549 and H2009 cells were prepared in radio-immunoprecipitation assay buffer (Thermo Fisher Scientific). Proteins were then analyzed in 12-230 and 66-440 kDa WES separation module of quantitative capillary Western immunoassay system (Protein Simple). Antibodies against AXL and GAPDH were (Cell Signaling Technology). Protein expression levels were normalized with GAPDH as loading controls.
# A549 lung cancer cells = test: Luminex multi-cytokine assay; assay type: cell-based, human; conditions: A549, 40 nmol/L, 24, 48, 72 hr
# Protocol: Luminex multi-cytokine assay. […] Condition medium was harvested in 24, 48 and 72 hr after incubation. Condition medium was then subjected to a cytokine assay by using MILLIPLEX® MAP Human Cytokine Panel 1 (38 Plex) (Millipore, HCYTA-60K-PXBK38) in Luminex™ FLEXMAP 3D™ Instrument System.
# A549 cells = test: Atomic force microscopy, A549; assay type: cell-based, human; conditions: A549, 40 nmol/L, 24 hr
# From the text: Atomic force microscopy. […] Briefly, live cells cultured were imaged in 60 mm dishes with a Nanoscope Catalyst AFM (Bruker, Billerica, Mass.) mounted on a Nikon Ti inverted epifluorescent microscope. […] To collect the nanomechanical phenotypes of single cells immersed in culture media, 30×30 μm images were captured with a resolution of 256×256 pixels using the PeakForce Quantitative Nanomechanical Mapping (QNM) AFM (Bruker, Billerica, Mass.). For imaging, […]-AIR (Bruker, Billerica, Mass.) probes were applied with the nominal spring constant 0.4 N/m. Following the Sneddon model and the Sokolov's rules, nanomechanical parameters were calculated with Nanoscope Analysis software v.1.7 (Bruker, Billerica, Mass.) using retrace images. Images of at least 15 cells representing each tested case in three biological replicates were collected.
# Atomic force microscopy (AFM). […] Briefly, live cells cultured in 60 mm dishes were imaged with a Nanoscope Catalyst AFM (Bruker) mounted on a Nikon Ti inverted epifluorescent microscope. […] To collect the nanomechanical phenotypes of single cells immersed in culture media, 30×30 μm images were captured with a resolution of 256×256 pixels using the Peak Force Quantitative Nanomechanical Mapping (QNM) AFM (Bruker). For imaging, […]-AIR probes were used with the nominal spring constant 0.4 N/m. Following the Sneddon model and the Sokolov's rules, nanomechanical parameters were calculated with Nanoscope Analysis software v.1.7 using retrace images.
# A549 and H2009 cells [2] = test: CellTiter-Glo cell viability, TP-0903 and/or ruxolitinib; assay type: cell-based, human; conditions: 20, 30 and 40 nmol/L, 72 hr
# Protocol: Cell lines. A549 and H2009 cell lines were obtained from and authenticated by the American Type Culture Collection, and routinely maintained in RPMI-1640 medium supplemented 10% FBS, penicillin (100 units/mL) and streptomycin ([…]) in aired with 5% CO^2 at 37° C. The absence of Mycoplasma contamination was validated using DAPI staining. […] The CellTiter-Glo Luminescent Cell Viability assay was used to determine cell responsiveness. shRNA knockdown was performed in A549 cells by using lentiviral delivery of short-hairpin AXL or vehicle plasmid pLKO.1 puro in two biological repeats (Addgene; Table 3).
# two other TAM family = conditions: refs [21, 22]; concentration not given; cited from earlier work
compound,measurement,setting,value
CN1CCN(Cc2ccc(Nc3ncc(Cl)c(Nc4ccccc4S(=O)(=O)N(C)C)n3)cc2)CC1 [TP-0903],effect on body weight,A549 mouse xenograft,without any adverse effects
same,tumor size / growth,A549 mouse xenograft; 21 days,substantial tumor size regression; also recorded: Growth inhibition was confirmed
same,AXL level (WES),"A549 and H2009 cells [1]; A549, 40 nmol/L",down-regulated
same,cytokeratin 19 (CK19) level,"A549 and H2009 cells [1]; A549 and H2009, 40 nM",noticeable increase
same,vimentin level,"A549 and H2009 cells [1]; A549 and H2009, 40 nM",minor decrease
same,"protein levels of AXL, phosphorylated AXL, SMAD2/3, SMAD4, YAP1, and TAZ","A549 and H2009 cells [1]; A549 and H2009, 40 nmol/L",reduced
same,"IL-8, VEGF, and IL-11 secretion",A549 lung cancer cells,decreased
same,decreased deformation,A549 cells,25%
same,increase in stiffness,A549 cells,3 fold
same,increased adhesion,A549 cells,50%
same,"sensitivity (cell viability), A549 compared with H2009",A549 and H2009 cells [2],more sensitive
same,inhibition of two other TAM family,two other TAM family,80%
